Structures can show the parent of a compound that is named as a salt.
Columns and labels:
TEAD2 = TEAD2 (Homo sapiens (Human), UniProt Q15562);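 note: TR-FRET competition assay with His-tagged TEAD protein and a biotinylated lipid pocket probe, compound pre-incubated 30 min or 4 h at room temperature, displacement lowers signal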
Experimental: His-tagged TEAD proteins are pre-incubated with TEAD project compounds for 30 minutes or 4 hours at room temperature. Biotinylated lipid pocket probes are then added to the TEAD/Compound mixture and incubated for 60 minutes at room temperature. The lipid pocket probe competes with the test compound for the TEAD lipid pocket until equilibrium is reached. After 60 minutes, Europium labelled anti-His (Perkin Elmer #AD0110) and XL665 labelled streptavidin (CIS Bio 610SAXAC) are added to the TEAD/test compound/lipid pocket mixture and incubated for 30 minutes or 4 hours. TR-FRET values are then measured using an EnVision multi-label plate reader (Perkin Elmer Cat #2104-0010A.) If the lipid pocket probe binds to TEAD as expected, a TR-FRET signal results from the proximity of anti-His Eu and XL665. If a TEAD lipid pocket binder such as binds and displaces the lipid pocket probe, the disruption of the TEAD:probe interaction results in a decrease in TR-FRET signal. The potency of compounds as TEAD lipid pocket binders is determined by IC50 value generated using a non-linear 4 parameter curve fit.

TEAD3 = TEAD3 (Homo sapiens (Human), UniProt Q99594); assay: TR-FRET lipid pocket probe competition assay (Lipid HTRF), TEAD3; format: binding; conditions: 4 hours pre-incubation; read-out: Lipid HTRF TEAD3 IC50
TEAD3, sequence (Q99594 whole entry, species assumed): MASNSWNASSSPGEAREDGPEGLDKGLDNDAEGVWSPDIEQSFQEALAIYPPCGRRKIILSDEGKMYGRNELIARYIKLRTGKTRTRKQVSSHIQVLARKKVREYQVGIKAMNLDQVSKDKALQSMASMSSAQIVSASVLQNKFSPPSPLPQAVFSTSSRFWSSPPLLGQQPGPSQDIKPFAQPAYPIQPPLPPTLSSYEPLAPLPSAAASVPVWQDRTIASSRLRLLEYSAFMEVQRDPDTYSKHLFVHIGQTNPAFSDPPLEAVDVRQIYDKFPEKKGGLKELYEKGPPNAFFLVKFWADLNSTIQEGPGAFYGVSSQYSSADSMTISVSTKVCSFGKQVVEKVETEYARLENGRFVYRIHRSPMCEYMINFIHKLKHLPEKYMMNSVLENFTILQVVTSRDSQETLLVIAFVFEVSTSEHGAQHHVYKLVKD
Experimental: (§1) His-tagged TEAD proteins are pre-incubated with TEAD project compounds for 30 minutes or 4 hours at room temperature. Biotinylated lipid pocket probes are then added to the TEAD/Compound mixture and incubated for 60 minutes at room temperature. The lipid pocket probe competes with the test compound for the TEAD lipid pocket until equilibrium is reached. After 60 minutes, Europium labelled anti-His (Perkin Elmer #AD0110) and XL665 labelled streptavidin (CIS Bio 610SAXAC) are added to the TEAD/test compound/lipid pocket mixture and incubated for 30 minutes or 4 hours. […] If a TEAD lipid pocket binder such as binds and displaces the lipid pocket probe, the disruption of the TEAD:probe interaction results in a decrease in TR-FRET signal. The potency of compounds as TEAD lipid pocket binders is determined by IC50 value generated using a non-linear 4 parameter curve fit.

TEAD1 = TEAD1 (Homo sapiens (Human), UniProt P28347); assay: TR-FRET lipid pocket probe competition assay (Lipid HTRF), TEAD1; format: binding; conditions: 4 hours pre-incubation; read-out: Lipid HTRF TEAD1 IC50;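 note: His-tagged TEAD1 with biotinylated probe, detected via Europium anti-His and XL665 streptavidin, probe displacement lowers TR-FRET signal, IC50 from four-parameter nonlinear fit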
TEAD1, sequence (P28347 whole entry, species assumed): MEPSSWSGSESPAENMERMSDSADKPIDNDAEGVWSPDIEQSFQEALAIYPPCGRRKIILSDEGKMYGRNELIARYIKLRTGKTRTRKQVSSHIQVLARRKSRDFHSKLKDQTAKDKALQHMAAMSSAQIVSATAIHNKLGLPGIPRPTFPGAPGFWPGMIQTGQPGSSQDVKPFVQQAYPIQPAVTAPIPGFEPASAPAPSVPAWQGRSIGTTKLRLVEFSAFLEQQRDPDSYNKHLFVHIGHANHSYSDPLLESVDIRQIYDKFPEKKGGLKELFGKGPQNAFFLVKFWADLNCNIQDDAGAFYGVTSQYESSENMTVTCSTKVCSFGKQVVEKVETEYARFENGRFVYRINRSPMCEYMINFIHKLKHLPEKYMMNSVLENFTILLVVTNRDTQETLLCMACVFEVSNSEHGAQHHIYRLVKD

TEAD4 = TEAD4 (Homo sapiens (Human), UniProt Q15561); assay: TR-FRET lipid pocket probe competition assay (Lipid HTRF), TEAD4; format: binding; conditions: 4 hours pre-incubation; read-out: Lipid HTRF TEAD4 IC50;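 note: His-tagged TEAD4 with biotinylated lipid-pocket probe, read by Europium anti-His and XL665 streptavidin, where probe displacement lowers the TR-FRET signal, IC50 from a four-parameter fit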
TEAD4, sequence (Q15561 whole entry, species assumed): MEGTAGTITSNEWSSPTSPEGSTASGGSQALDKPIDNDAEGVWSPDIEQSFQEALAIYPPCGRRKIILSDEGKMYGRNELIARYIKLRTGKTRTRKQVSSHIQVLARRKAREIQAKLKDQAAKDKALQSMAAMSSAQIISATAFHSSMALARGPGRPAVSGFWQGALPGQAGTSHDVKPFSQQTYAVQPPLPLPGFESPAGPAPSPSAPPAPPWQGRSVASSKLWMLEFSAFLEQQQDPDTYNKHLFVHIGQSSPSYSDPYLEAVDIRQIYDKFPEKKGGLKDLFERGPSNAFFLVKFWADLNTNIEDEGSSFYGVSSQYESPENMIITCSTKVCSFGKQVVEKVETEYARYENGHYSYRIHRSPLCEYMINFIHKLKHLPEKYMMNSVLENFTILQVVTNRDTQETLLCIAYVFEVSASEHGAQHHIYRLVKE
Experimental: as §1

TEAD2, sequence (Q15562 whole entry, species assumed): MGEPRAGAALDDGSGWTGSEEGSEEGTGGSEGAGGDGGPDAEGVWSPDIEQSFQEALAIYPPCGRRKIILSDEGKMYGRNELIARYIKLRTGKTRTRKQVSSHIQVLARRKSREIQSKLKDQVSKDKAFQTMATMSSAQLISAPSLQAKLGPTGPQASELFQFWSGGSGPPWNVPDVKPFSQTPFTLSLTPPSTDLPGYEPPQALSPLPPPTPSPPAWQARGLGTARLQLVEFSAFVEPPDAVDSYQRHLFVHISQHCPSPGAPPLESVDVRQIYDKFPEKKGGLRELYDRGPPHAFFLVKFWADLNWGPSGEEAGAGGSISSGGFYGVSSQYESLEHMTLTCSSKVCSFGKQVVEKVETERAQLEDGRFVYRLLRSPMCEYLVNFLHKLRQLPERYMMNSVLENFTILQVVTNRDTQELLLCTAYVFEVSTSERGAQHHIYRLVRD

Row | IC50 (TEAD2) [nM] | IC50 (TEAD3) [nM] | IC50 (TEAD1) [nM] | SMILES | IC50 (TEAD4) [nM]
1 | 180 |  |  | C=CC(=O)NCc1nn(-c2ccc(OC(F)(F)F)cc2)c2nccc(N3CC([C@@H](C)O)C3)c12 (stereo in doubt) [Compound 123, N-((4-(3-(1-hydroxyethyl)azetidin-1-yl)-1-(4-(trifluoromethoxy)phenyl)-1H-pyrazolo[3,4-b]pyridin-3-yl)methyl)acrylamide] | 
2 | 290 |  |  | C=CC(=O)NCc1nn(-c2ccc(OC(F)(F)F)cc2)c2nccc(N3CC([C@H](C)O)C3)c12 (stereo in doubt) [Compound 138, N-((4-(3-(1-hydroxyethyl)azetidin-1-yl)-1-(4-(trifluoromethoxy)phenyl)-1H-pyrazolo[3,4-b]pyridin-3-yl)methyl)acrylamide] | 
3 | 250 | 300 | 33 | C=C(C)C(=O)N1CC(c2nn(-c3ccc(OC(F)(F)F)cc3)c3nccc(CO)c23)C1 [Compound 22, 1-(3-(4-(Hydroxymethyl)-1-(4-(trifluoromethoxy)phenyl)-1H-pyrazolo[3,4-b]pyridin-3-yl)azetidin-1-yl)-2-methylprop-2-en-1-one] | 
4 | 2300 | 50000 |  | C/C=C/C(=O)NCc1nn(-c2ccc(OC(F)(F)F)cc2)c2nccc(CO)c12 [Compound 61, (E)-N-((4-(Hydroxymethyl)-1-(4-(trifluoromethoxy)phenyl)-1H-pyrazolo[3,4-b]pyridin-3-yl)methyl)but-2-enamide] | 
5 | 7.5 | 19 |  | O=C(C1=CCC1)N1CC(c2nn(-c3ccc(OC(F)(F)F)cc3)c3nccc([C@H](O)CO)c23)C1 [Compound 72, (S)-Cyclobut-1-en-1-yl(3-(4-(1,2-dihydroxyethyl)-1-(4-(trifluoromethoxy)phenyl)-1H-pyrazolo[3,4-b]pyridin-3-yl)azetidin-1-yl)methanone] | 
6 |  | 3700 |  | C=CC(=O)NCc1nn(-c2ccc(OC(F)(F)F)cc2)c2nccc(N(C)[C@H]3C[C@H](O)C3)c12 [Compound 90, N-((4-((3-hydroxycyclobutyl)(methyl)amino)-1-(4-(trifluoromethoxy)phenyl)-1H-pyrazolo[3,4-b]pyridin-3-yl)methyl)acrylamide] | 9.9
7 | 29 |  | 15 | O=C(/C=C/CO)N1CC(c2nn(-c3ccc(OC(F)(F)F)cc3)c3nccc(CO)c23)C1 [Compound 94, (E)-4-Hydroxy-1-(3-(4-(hydroxymethyl)-1-(4-(trifluoromethoxy)phenyl)-1H-pyrazolo[3,4-b]pyridin-3-yl)azetidin-1-yl)but-2-en-1-one] | 
8 | 27 | 92 |  | O=C(/C=C/CO)N1CC(c2nn(-c3ccc(OC(F)(F)F)cc3)c3nccc([C@@H](O)CO)c23)C1 [Compound 95, (R,E)-1-(3-(4-(1,2-dihydroxyethyl)-1-(4-(trifluoromethoxy)phenyl)-1H-pyrazolo[3,4-b]pyridin-3-yl)azetidin-1-yl)-4-hydroxybut-2-en-1-one] | 
9 | 75 | 460 | 32 | CC#CC(=O)NCc1nn(-c2ccc(OC(F)(F)F)cc2)c2nccc(CO)c12 [Compound 98, N-((4-(Hydroxymethyl)-1-(4-(trifluoromethoxy)phenyl)-1H-pyrazolo[3,4-b]pyridin-3-yl)methyl)but-2-ynamide] | 
10 | 120 | 140 |  | O=C(/C=C/CO)N1CC(c2nn(-c3ccc(OC(F)(F)F)cc3)c3nccc([C@H](O)CO)c23)C1 [Compound 108, (S,E)-1-(3-(4-(1,2-Dihydroxyethyl)-1-(4-(trifluoromethoxy)phenyl)-1H-pyrazolo[3,4-b]pyridin-3-yl)azetidin-1-yl)-4-hydroxybut-2-en-1-one] | 
11 | 6 | 11 |  | O=C(C1=CCC1)N1CC(c2nn(-c3ccc(OC(F)(F)F)cc3)c3nccc([C@@H](O)CO)c23)C1 [Compound 115, (R)-cyclobut-1-en-1-yl(3-(4-(1,2-dihydroxyethyl)-1-(4-(trifluoromethoxy)phenyl)-1H-pyrazolo[3,4-b]pyridin-3-yl)azetidin-1-yl)methanone] | 
12 |  | 16000 |  | C=CC(=O)NCc1nn(-c2ccc(OC(F)(F)F)cc2)c2nccc(N(C)[C@H]3C[C@@H](O)C3)c12 [Compound 117, N-((4-((3-hydroxycyclobutyl)(methyl)amino)-1-(4-(trifluoromethoxy)phenyl)-1H-pyrazolo[3,4-b]pyridin-3-yl)methyl)acrylamide] | 33
13 | 68 | 350 | 21 | O=C(/C=C/CF)NCc1nn(-c2ccc(OC(F)(F)F)cc2)c2nccc(CO)c12 [Compound 121, (E)-4-Fluoro-N-((4-(hydroxymethyl)-1-(4-(trifluoromethoxy)phenyl)-1H-pyrazolo[3,4-b]pyridin-3-yl)methyl)but-2-enamide] | 
14 |  |  |  | C=CC(=O)NCc1nn(-c2ccc(OC(F)(F)F)cc2)c2nccc([C@H](O)COP(=O)(O)O)c12 [Compound 147, (S)-2-(3-(Acrylamidomethyl)-1-(4-(trifluoromethoxy)phenyl)-1H-pyrazolo[3,4-b]pyridin-4-yl)-2-hydroxyethyl dihydrogen phosphate] | 36000
15 |  |  | 910 | O=C(NCc1nn(-c2ccc(OC(F)(F)F)cc2)c2nccc(CO)c12)C1=CCOC1 [Compound 149, N-((4-(Hydroxymethyl)-1-(4-(trifluoromethoxy)phenyl)-1H-pyrazolo[3,4-b]pyridin-3-yl)methyl)-2,5-dihydrofuran-3-carboxamide] | 
16 | 290 | 50000 | 580 | O=C(N1CC(c2nn(-c3ccc(OC(F)(F)F)cc3)c3nccc(CO)c23)C1)C12CC1C2 (stereo not drawn) [Compound 153, Bicyclo[1.1.0]butan-1-yl(3-(4-(hydroxymethyl)-1-(4-(trifluoromethoxy)phenyl)-1H-pyrazolo[3,4-b]pyridin-3-yl)azetidin-1-yl)methanone] | 
17 | 5.7 | 17 |  | O=C(C1=CCC1)N1CC(c2nn(-c3ccc(OC(F)(F)F)cc3)c3nccc([C@@H](O)CO)c23)C1 [Compound 157, (R)-Cyclobut-1-en-1-yl(3-(4-(1,2-dihydroxyethyl)-1-(4-(trifluoromethoxy)phenyl)-1H-pyrazolo[3,4-b]pyridin-3-yl)azetidin-1-yl)methanone] | 
18 | 3.4 |  |  | C/C=C/S(=O)(=O)N1CC(c2nn(-c3ccc(OC(F)(F)F)cc3)c3nccc([C@H](O)CO)c23)C1 [Compound 161, (S,E)-1-(3-(1-(Prop-1-en-1-ylsulfonyl)azetidin-3-yl)-1-(4-(trifluoromethoxy)phenyl)-1H-pyrazolo[3,4-b]pyridin-4-yl)ethane-1,2-diol] | 
19 | 10 |  |  | C/C=C/S(=O)(=O)N1CC(c2nn(-c3ccc(OC(F)(F)F)cc3)c3nccc([C@@H](O)CO)c23)C1 [Compound 162, (R,E)-1-(3-(1-(prop-1-en-1-ylsulfonyl)azetidin-3-yl)-1-(4-(trifluoromethoxy)phenyl)-1H-pyrazolo[3,4-b]pyridin-4-yl)ethane-1,2-diol] | 

Row | SMILES | IC50 (TEAD2) [nM] | IC50 (TEAD3) [nM] | IC50 (TEAD1) [nM] | IC50 (TEAD4) [nM]
20 | C=CC(=O)NCc1nn(-c2ccc(OC(F)(F)F)cc2)c2nccc([C@H](O)COC(=O)CN)c12 [Compound 145, (S)-2-(3-(Acrylamidomethyl)-1-(4-(trifluoromethoxy)phenyl)-1H-pyrazolo[3,4-b]pyridin-4-yl)-2-hydroxyethyl 2-aminoacetate formate] | 71 |  | 140 | 49

From patent publication US12110276B2 (Genentech, Inc., priority 2021, dated 2024)
